Tests used:
IRAK4 = target: T1, IRAK4 (Homo sapiens, UniProt Q9NWZ3); experiment: IRAK4 MSD degradation in OCI-LY10; type: cell-based; conditions: OCI-LY10 cells, 24 hrs, Meso Scale Discovery
T1 construct: endogenous in cells; host or cells: OCI-LY10
T1 sequence (Q9NWZ3 1-460): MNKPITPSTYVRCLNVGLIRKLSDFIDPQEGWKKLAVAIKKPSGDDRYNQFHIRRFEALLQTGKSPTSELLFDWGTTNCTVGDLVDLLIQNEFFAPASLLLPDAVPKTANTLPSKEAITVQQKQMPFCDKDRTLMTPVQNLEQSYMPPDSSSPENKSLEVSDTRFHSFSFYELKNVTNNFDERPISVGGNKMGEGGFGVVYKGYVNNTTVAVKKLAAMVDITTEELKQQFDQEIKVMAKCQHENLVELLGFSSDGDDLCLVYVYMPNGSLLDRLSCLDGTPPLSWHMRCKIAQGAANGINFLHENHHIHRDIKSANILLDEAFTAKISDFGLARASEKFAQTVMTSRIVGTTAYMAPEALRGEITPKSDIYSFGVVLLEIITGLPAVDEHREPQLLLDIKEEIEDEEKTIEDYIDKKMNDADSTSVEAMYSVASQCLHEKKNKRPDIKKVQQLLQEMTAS
Outline: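 OCI-LY10 cells treated 4 to 24 hours at 37° C. with 8-dose 1:3 series, top 1 to 10 μM. IRAK4 in lysates quantified by MSD sandwich immunoassay (mouse capture, rabbit detection, SULFO-TAG anti-rabbit). DC50 from three-parameter logistic fit.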

[1] = Rodent pharmacokinetics (rat PK); type: in vivo; conditions: po, dosed intravenously or orally by gavage, plasma, read-out: F % (bioavailability)
Outline: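 Rats were dosed IV or by oral gavage, with jugular blood taken predose and at 5 min (IV only), 15, 30 min and 1, 2, 4, 8, 24 h. Plasma was separated by centrifugation at 4 °C. Oral bioavailability (F %) is coded A (≥5%) or B (≤5%).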

Cn1c(=O)n(C2CCC(=O)NC2=O)c2cccc([C@@H]3CCN(C[C@H]4CC[C@H](c5cn6cc(NC(=O)c7cncc(C(F)(F)F)n7)c(C(C)(C)O)cc6n5)CC4)C[C@H]3F)c21 (stereo partly shown) [I-343]
DC50 (IRAK4): < 10 nM | bioavailability [1]: ≤ 5%

Cn1c(=O)n(C2CCC(=O)NC2=O)c2cccc([C@@H]3CCN(C[C@H]4CC[C@H](n5cc6cc(NC(=O)c7cncc(C(F)(F)F)n7)c(S(C)(=O)=O)cc6n5)CC4)C[C@H]3F)c21 (stereo partly shown) [I-346]
DC50 (IRAK4): < 10 nM | bioavailability [1]: ≤ 5%

COc1ccc2c(c1[C@@H]1CCN(C[C@H]3CC[C@H](n4cc5cc(NC(=O)c6cncc(C(F)(F)F)n6)ccc5n4)CC3)C[C@H]1F)n(C)c(=O)n2C1CCC(=O)NC1=O (stereo partly shown) [I-347]
DC50 (IRAK4): < 10 nM | bioavailability [1]: ≥ 5%

COc1ccc2c(c1[C@H]1CCN(C[C@H]3CC[C@H](n4cc5cc(NC(=O)c6cncc(C(F)(F)F)n6)ccc5n4)CC3)C[C@@H]1F)n(C)c(=O)n2C1CCC(=O)NC1=O (stereo partly shown) [I-352]
DC50 (IRAK4): < 10 nM | bioavailability [1]: ≤ 5%

COc1cc(NC(=O)c2cncc(C(F)(F)F)n2)cc2cn([C@H]3CC[C@H](CN4CC[C@@H](c5cccc6c5n(C)c(=O)n6C5CCC(=O)NC5=O)[C@H](F)C4)CC3)nc12 (stereo partly shown) [I-355]
DC50 (IRAK4): < 10 nM | bioavailability [1]: ≤ 5%

Cn1c(=O)n(C2CCC(=O)NC2=O)c2cccc([C@@H]3CCN(C[C@H]4CC[C@H](n5cc6cc(NC(=O)c7cncc(C(F)(F)F)n7)cc(F)c6n5)CC4)C[C@H]3F)c21 (stereo partly shown) [I-356]
DC50 (IRAK4): < 10 nM | bioavailability [1]: ≤ 5%

Cc1cncc(C(=O)Nc2cc3cn([C@H]4CC[C@H](CN5CCC6(CCN(c7cccc8c7n(C)c(=O)n8C7CCC(=O)NC7=O)CC6)C(F)(F)C5)CC4)nc3cc2C(C)(C)O)c1 (stereo partly shown) [I-361]
DC50 (IRAK4): < 10 nM | bioavailability [1]: ≤ 5%

Cn1c(=O)n(C2CCC(=O)NC2=O)c2cccc(N3CCC4(CCN(C[C@H]5CC[C@H](c6nc7cc(C(C)(C)O)c(NC(=O)c8cncc(C#N)c8)cc7s6)CC5)CC4(F)F)CC3)c21 (stereo partly shown) [I-364]
DC50 (IRAK4): 100 to 200 nM | bioavailability [1]: ≤ 5%

Cn1c(=O)n(C2CCC(=O)NC2=O)c2cccc(N3CCC4(CCN(C[C@H]5CC[C@H](n6cc7cc(NC(=O)c8cncc(C(F)(F)F)c8)c(C(C)(C)O)cc7n6)CC5)CC4(F)F)CC3)c21 (stereo partly shown) [I-365]
DC50 (IRAK4): < 10 nM | bioavailability [1]: ≥ 5%

Cn1c(=O)n(C2CCC(=O)NC2=O)c2cccc(N3CC4(CCN(C[C@H]5CC[C@H](n6cc7cc(NC(=O)c8cncc(C#N)c8)c(C(C)(C)O)cc7n6)CC5)CC4(F)F)C3)c21 (stereo partly shown) [I-366]
DC50 (IRAK4): < 10 nM | bioavailability [1]: ≤ 5%

Cn1c(=O)n(C2CCC(=O)NC2=O)c2cccc(N3CC4(CCN(C[C@H]5CC[C@H](c6nc7cc(C(C)(C)O)c(NC(=O)c8cncc(C#N)c8)cc7s6)CC5)CC4(F)F)C3)c21 (stereo partly shown) [I-367]
DC50 (IRAK4): 10 to 100 nM | bioavailability [1]: ≥ 5%

Cn1c(=O)n(C2CCC(=O)NC2=O)c2cccc(N3CC4(CCN(C[C@H]5CC[C@H](n6cc7cc(NC(=O)c8cncc(C(F)(F)F)c8)c(C(C)(C)O)cc7n6)CC5)CC4(F)F)C3)c21 (stereo partly shown) [I-373]
DC50 (IRAK4): < 10 nM | bioavailability [1]: ≤ 5%

COc1cc(NC(=O)c2cncc(C(F)(F)F)n2)cc2cn([C@H]3CC[C@H](CN4CC[C@@H](c5cccc6c5n(C)c(=O)n6C5CCC(=O)NC5=O)C(F)(F)C4)CC3)nc12 (stereo partly shown) [I-374]
DC50 (IRAK4): < 10 nM | bioavailability [1]: ≤ 5%

Cn1c(=O)n(C2CCC(=O)NC2=O)c2cccc([C@@H]3CCN(C[C@H]4CC[C@H](n5cc6cc(NC(=O)c7cncc(C(F)(F)F)n7)cc(F)c6n5)CC4)CC3(F)F)c21 (stereo partly shown) [I-375]
DC50 (IRAK4): < 10 nM | bioavailability [1]: ≤ 5%

Cn1c(=O)n(C2CCC(=O)NC2=O)c2cccc([C@@H]3CCN(C[C@H]4CC[C@H](n5cc6cc(NC(=O)c7cncc(C(F)F)n7)ccc6n5)CC4)CC3(F)F)c21 (stereo partly shown) [I-384]
DC50 (IRAK4): < 10 nM | bioavailability [1]: ≤ 5%

Cn1c(=O)n(C2CCC(=O)NC2=O)c2cccc(N3CCC4(CCN(C[C@H]5CC[C@H](n6cc7cc(NC(=O)c8cncc(F)c8)c(C(C)(C)O)cc7n6)CC5)CC4(F)F)CC3)c21 (stereo partly shown) [I-386]
DC50 (IRAK4): < 10 nM | bioavailability [1]: ≥ 5%

Cn1c(=O)n(C2CCC(=O)NC2=O)c2cccc(N3CCC4(CCN(C[C@H]5CC[C@H](n6cc7cc(NC(=O)c8cncc(Cl)c8)c(C(C)(C)O)cc7n6)CC5)CC4(F)F)CC3)c21 (stereo partly shown) [I-387]
DC50 (IRAK4): < 10 nM | bioavailability [1]: ≤ 5%

Cn1c(=O)n(C2CCC(=O)NC2=O)c2ccc(F)c(N3CC4(CCN(C[C@H]5CC[C@H](n6cc7cc(NC(=O)c8cncc(C#N)c8)c(C(C)(C)O)cc7n6)CC5)CC4(F)F)C3)c21 (stereo partly shown) [I-388]
DC50 (IRAK4): < 10 nM | bioavailability [1]: ≤ 5%

Cn1c(=O)n(C2CCC(=O)NC2=O)c2ccc(F)c(N3CCC4(CCN(C[C@H]5CC[C@H](n6cc7cc(NC(=O)c8cncc(C#N)c8)c(C(C)(C)O)cc7n6)CC5)CC4(F)F)CC3)c21 (stereo partly shown) [I-393]
DC50 (IRAK4): < 10 nM | bioavailability [1]: ≤ 5%

COc1cc(C(=O)Nc2ccc3nn([C@H]4CC[C@H](CN5CC[C@@H](c6cccc7c6n(C)c(=O)n7C6CCC(=O)NC6=O)[C@H](F)C5)CC4)cc3c2)nc(C(F)(F)F)c1 (stereo partly shown) [I-394]
DC50 (IRAK4): > 200 nM | bioavailability [1]: ≥ 5%

Cc1cc(C(=O)Nc2ccc3nn([C@H]4CC[C@H](CN5CC[C@@H](c6cccc7c6n(C)c(=O)n7C6CCC(=O)NC6=O)[C@H](F)C5)CC4)cc3c2)nc(C(F)(F)F)c1 (stereo partly shown) [I-395]
DC50 (IRAK4): > 200 nM | bioavailability [1]: ≥ 5%

COc1cc2nn([C@H]3CC[C@H](CN4CCC5(CCN(c6cccc7c6n(C)c(=O)n7C6CCC(=O)NC6=O)CC5)C(F)(F)C4)CC3)cc2cc1C(=O)Nc1cccc(C(F)(F)F)n1 (stereo partly shown) [I-396]
DC50 (IRAK4): > 200 nM | bioavailability [1]: ≤ 5%

CC(C)(O)c1cc2nn([C@H]3CC[C@H](CN4CCC5(CCN(c6cccc7c(N8CCC(=O)NC8=O)cncc67)CC5)C(F)(F)C4)CC3)cc2cc1NC(=O)c1cncc(C#N)c1 [I-400]
DC50 (IRAK4): < 10 nM | bioavailability [1]: ≤ 5%

Cn1nc(N2CCC(=O)NC2=O)c2cccc(N3CCC4(CCN(C[C@H]5CC[C@H](n6cc7cc(NC(=O)c8cncc(C#N)c8)c(C(C)(C)O)cc7n6)CC5)CC4(F)F)CC3)c21 [I-404]
DC50 (IRAK4): 10 to 100 nM | bioavailability [1]: ≤ 5%

Cn1c(=O)n(C2CCC(=O)NC2=O)c2cccc([C@@H]3CCN(C[C@H]4CC[C@H](c5nc6cc(C(C)(C)O)c(NC(=O)c7cncc(C#N)c7)cc6o5)CC4)C[C@H]3F)c21 (stereo partly shown) [I-405]
DC50 (IRAK4): 10 to 100 nM | bioavailability [1]: ≤ 5%

Cn1c(=O)n(C2CCC(=O)NC2=O)c2cccc(N3CCC4(CCN(C[C@H]5CC[C@H](c6nc7cc(C(C)(C)O)c(NC(=O)c8cncc(C#N)c8)cc7o6)CC5)CC4(F)F)CC3)c21 (stereo partly shown) [I-406]
DC50 (IRAK4): > 200 nM | bioavailability [1]: ≤ 5%

Cn1c(=O)n(C2CCC(=O)NC2=O)c2cccc(N3CCC4(CCN(C[C@H]5CC[C@H](c6nc7cc(C(C)(C)O)c(NC(=O)c8cccc(C(F)(F)F)n8)cc7s6)CC5)CC4(F)F)CC3)c21 (stereo partly shown) [I-407]
DC50 (IRAK4): 10 to 100 nM | bioavailability [1]: ≤ 5%

Cn1c(=O)n(C2CCC(=O)NC2=O)c2cccc(N3CCC4(CCN(C[C@H]5CC[C@H](c6nc7cc(C(C)(C)O)c(NC(=O)c8cccc(C(F)(F)F)n8)cc7o6)CC5)CC4(F)F)CC3)c21 (stereo partly shown) [I-408]
DC50 (IRAK4): > 200 nM | bioavailability [1]: ≥ 5%

Cn1c(=O)n(C2CCC(=O)NC2=O)c2cccc(N3CC4(CCN(C[C@H]5CC[C@H](c6nc7cc(C(C)(C)O)c(NC(=O)c8cccc(C(F)(F)F)n8)cc7s6)CC5)CC4(F)F)C3)c21 (stereo partly shown) [I-409]
DC50 (IRAK4): 10 to 100 nM | bioavailability [1]: ≥ 5%

Cn1c(=O)n(C2CCC(=O)NC2=O)c2cccc(N3CC4(CCN(C[C@H]5CC[C@H](c6nc7cc(C(C)(C)O)c(NC(=O)c8cncc(C#N)c8)cc7o6)CC5)CC4(F)F)C3)c21 (stereo partly shown) [I-410]
DC50 (IRAK4): > 200 nM | bioavailability [1]: ≥ 5%

Cn1c(=O)n(C2CCC(=O)NC2=O)c2cccc(N3CC4(CCN(C[C@H]5CC[C@H](c6nc7cc(C(C)(C)O)c(NC(=O)c8cccc(C(F)(F)F)n8)cc7o6)CC5)CC4(F)F)C3)c21 (stereo partly shown) [I-411]
DC50 (IRAK4): > 200 nM | bioavailability [1]: ≥ 5%

COc1ccc2c(c1N1CC3(CCN(C[C@H]4CC[C@H](c5nc6cc(C(C)(C)O)c(NC(=O)c7cncc(C#N)c7)cc6s5)CC4)CC3(F)F)C1)n(C)c(=O)n2C1CCC(=O)NC1=O (stereo partly shown) [I-412]
DC50 (IRAK4): 100 to 200 nM | bioavailability [1]: ≤ 5%

COc1ccc2c(c1N1CC3(CCN(C[C@H]4CC[C@H](c5nc6cc(C(C)(C)O)c(NC(=O)c7cncc(C#N)c7)cc6o5)CC4)CC3(F)F)C1)n(C)c(=O)n2C1CCC(=O)NC1=O (stereo partly shown) [I-413]
DC50 (IRAK4): > 200 nM | bioavailability [1]: ≤ 5%

COc1ccc2c(c1N1CC3(CCN(C[C@H]4CC[C@H](c5nc6cc(C(C)(C)O)c(NC(=O)c7cccc(C(F)(F)F)n7)cc6s5)CC4)CC3(F)F)C1)n(C)c(=O)n2C1CCC(=O)NC1=O (stereo partly shown) [I-414]
DC50 (IRAK4): > 200 nM | bioavailability [1]: ≤ 5%

COc1ccc2c(c1N1CC3(CCN(C[C@H]4CC[C@H](c5nc6cc(C(C)(C)O)c(NC(=O)c7cccc(C(F)(F)F)n7)cc6o5)CC4)CC3(F)F)C1)n(C)c(=O)n2C1CCC(=O)NC1=O (stereo partly shown) [I-415]
DC50 (IRAK4): < 10 nM | bioavailability [1]: ≤ 5%
